[invdT] = inverted (3'-3') thymidine; {TYE665} = TYE665 fluorescent dye
Key:
[1] = target: T1, native EpCAM protein expressed on the cell surface (HEY cells) (Homo sapiens, UniProt P16422); test: Flow cytometry binding assay on HEY cells (EpCAM-positive); details: for Kd: HEY (EpCAM-positive) cells, flow cytometry, n=3
T1 construct: host or cells: HEY ovarian cancer cells
T1 sequence (P16422 24-314): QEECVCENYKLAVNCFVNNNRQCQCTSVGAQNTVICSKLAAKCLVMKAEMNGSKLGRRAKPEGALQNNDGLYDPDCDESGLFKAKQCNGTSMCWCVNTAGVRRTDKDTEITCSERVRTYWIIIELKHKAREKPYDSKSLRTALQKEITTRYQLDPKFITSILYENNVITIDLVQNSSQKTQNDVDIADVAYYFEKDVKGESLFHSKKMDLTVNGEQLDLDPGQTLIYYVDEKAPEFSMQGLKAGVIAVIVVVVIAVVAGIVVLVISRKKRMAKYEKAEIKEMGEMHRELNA
Description: In order to determine the binding affinity (equilibrium dissociation constant KD) of the aptamers. Binding assays were conducted to measure the binding to native EpCAM protein expressed on the cell surface. The aptamers were incubated with the cells at concentrations ranging from 0 nM to 400 nM. These were subsequently analysed by flow cytometry. Aptamers were thawed from storage (−20° C.) prior to use. These were then diluted via serial dilutions with phosphate buffered saline (PBS) in order to achieve the desired concentrations. PBS was supplemented with a MgCl2 concentration appropriate for the aptamer (1 mM for anti-TfR aptamers; 5 mM for conjugate aptamers). Aptamers were then folded into their 3D structures using a thermocycler (85° C. for 5 minutes, slow cooling to 22° C. over 10 minutes and 37° C. for 15 minutes).
Concurrently, subcultured cells were incubated in blocking buffer (PBS with 10% FCS, 1 mg/mL BSA, 0.1 mg/mL tRNA) for 30 minutes. Following centrifugation, blocking buffer was removed and cells were resuspended in binding buffer (PBS with 10% FCS, 1 mg/mL BSA, 0.1 mg/mL tRNA). Cells (50 μL) were then incubated with the aptamers (50 μL) for 30 minutes at 37° C. at a range of concentrations (0 nM, 20 nM, 40 nM, 60 nM, 80 nM, 100 nM, 200 nM, 400 nM). Following this, cells were washed in 100 μL PBS three times before final resuspension for flow cytometry.
Aptamers were incubated with the chosen cell lines (bEnd.3 cells, mouse cells positive for TfR; HEY cells, human ovarian cancer cell line positive for EpCAM; and MOLT4 human cells negative for both TfR and EpCAM) at a range of concentrations. Aptamer-bound cells were analysed using a FACS Canto II flow cytometer (Becton Dickinson), counting 10,000 events for each sample, in order to determine the binding affinity of the aptamers. […] The value for the auto fluorescent 0 nM concentration was subtracted from the other figures to account for background fluorescence (Li N et al (2009) Journal of Proteome Research 8(5):2438-48). The resultant values were then used to determine the dissociation constant (KD) via the Graph Pad Prism 3 software. […]
The binding affinities of aptamers Bi1, Bi2 and Bi3 were determined semi-quantitatively via flow cytometry, using bEnd.3 cells to assess reactivity with TfR, HEY cells to determine EpCAM specificity and the MOLT4 cell line as a negative control. Three independent binding assays were performed for these aptamer against all three cell lines (bEnd.3, HEY and MOLT4). […]

bEnd.3 cells = test: Confocal microscopy internalisation into bEnd.3 cells; type: cell-based, mouse; details: for Internalisation into TfR-expressing bEnd.3 cells: conjugate aptamers, 400 nM, two hour, confocal microscopy
Description: Confocal microscopy was used as a means of visualising aptamer internalisation into the cells. Both aptamers and cells were prepared in the same manner as described above before they were mixed and allowed to incubate at 37° C. The aptamers were used at a concentration of 200 nM and were allowed to incubate for 60 minutes. The concentration for the conjugate (bifunctional) aptamers was 400 nM and these were incubated with the cells for 120 minutes. Ten minutes prior to end of incubation, 2 μL of Hoechst nuclear stain (10 mg/mL) was added to cells. Cells were then washed three times with 100 μL of PBS as described above and resuspended in 20 μL (8×10^5 cells/well) in an 8-chambered slide (Lab-Tek II, Nunc) for visualisation. Cells were incubated in blocking buffer for 60 mins followed by resuspension in binding buffer containing the aptamer and incubated for 60 mins at 37° C. […] The aptamer solution was removed and the cells were washed three times for 5 min each in PBS prior to visualisation using a FluoView FV10i laser scanning confocal microscope (Olympus). In order to assess the mechanism of cellular uptake, the internalisation of a phycoethyrin-labelled rat anti-mouse TfR monoclonal antibody (R17217; Abcam) was also visualised by confocal microscopy by co-incubating it with the aptamer at 1 μg/mL for 30 minutes. The uptake of these aptamers into cells is an important factor in determining the potential for use as therapeutics. The anti-transferrin receptor aptamers generated herein are designed to pass through the BBB via the active transcytosis pathway. […] This was done by visualising the internalisation of aptamers at a concentration of 200 nM into bEnd.3 and MOLT4 cells over the course of a one hour incubation with confocal microscopy. Aptamers are relatively new molecular tools in the field of diagnostics and therapeutics. […] The performance of the aptamer with a corresponding antibody was compared by examining uptake in bEnd.3 cells. This was done by incubating the highest affinity aptamer, TfR3, and the anti-TfR antibody with the bEnd.3 cells and observing them via confocal microscopy. The anti-TfR aptamers generated herein are intended to be used as drug delivery agents capable of crossing the blood-brain barrier (BBB). In an in vivo or clinical setting, these would need to pass from the bloodstream and into the BBB endothelial monolayer before exiting on the other side into the brain parenchyma. Given this, it is vital that these are not only capable of entered cells via active transport processes, but can also exocytose out again. Therefore, a time course internalisation experiment was conducted in order to establish whether or not the aptamers are being retained in the cells or are returning to the extracellular fluid. […]

Row | Substance | Binding to HEY cell line (specific or non-specific) ([1]; flow cytometry binding curve) | Co-localisation with the anti-TfR antibody (bEnd.3 cells; bEnd.3 cells, co-incubation with antibody R17217) | Kd [1] | Internalisation into TfR-expressing bEnd.3 cells (bEnd.3 cells)
1 | TfR3: version of TfR1 with scrambled binding loop sequence, SEQ ID NO:6 (DNA GCGTGGTACCACGC; DNA, 5' {TYE665}, 3' [invdT], backbone not given here) | clear non-specific binding | observed | – | –
2 | 5′-GCGCGGTACCGCGCTAACGGAGGTTGCGTCCGT-3′ (GCGCGGTACCGCGCTAACGGAGGTTGCGTCCGN; listed as DNA, chemistry not given here) [Bi3] | – | – | 219 ± 49.2 nM | internalised
3 | 5′-GCGCGGGCCCGCGCTAACGGAGGTTGCGTCCGT-3′ (GCGCGGGCCCGCGCTAACGGAGGTTGCGTCCGN; DNA sequence of aptamer conjugate Bi2; (33)..(33) n is t or 3′ inverted deoxythymidine (dT)) | – | – | 205 ± 73.3 nM | internalised
4 | Bi1: aptamer conjugate based on TfR1 and scrambled EpCAM binding loop, negative control, SEQ ID NO:8 (GCGCGTGCACGCGCTAACGGATTCCTTTTCCGN; listed as DNA, further chemistry not given here) | – | – | 921 ± 270 nM | not
